Source: ChEMBL document CHEMBL3994587, “An insight on synthetic and medicinal aspects of pyrazolo[1,5-a]pyrimidine scaffold” (Eur J Med Chem, 2017)
Converted amounts (≈) assume the structure as drawn.

Assays:
[1] = biological target: T1, Corticotropin-releasing factor receptor 1 (Homo sapiens, UniProt P34998); test: Displacement of [125I-Tyr0]-CRF from recombinant human CRF1 receptor
T1 sequence (P34998 whole entry): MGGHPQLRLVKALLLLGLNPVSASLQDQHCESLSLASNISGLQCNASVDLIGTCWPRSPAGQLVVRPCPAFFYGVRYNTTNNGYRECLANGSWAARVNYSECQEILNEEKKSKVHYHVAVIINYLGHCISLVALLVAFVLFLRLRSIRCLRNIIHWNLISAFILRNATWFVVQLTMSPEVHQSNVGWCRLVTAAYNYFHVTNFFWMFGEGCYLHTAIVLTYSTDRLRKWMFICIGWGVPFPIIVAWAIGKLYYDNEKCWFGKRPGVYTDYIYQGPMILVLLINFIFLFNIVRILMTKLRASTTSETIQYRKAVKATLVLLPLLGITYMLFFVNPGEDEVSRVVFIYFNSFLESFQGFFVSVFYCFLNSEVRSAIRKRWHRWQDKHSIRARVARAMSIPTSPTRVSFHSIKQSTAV

Salmonella typhi = test: Antibacterial activity against Salmonella typhi MTCC 98 assessed as zone of inhibition at 25 to 150 ug/ml measured after 24 hrs by agar well diffusion method; type: functional, Salmonella enterica subsp. enterica serovar Typhi
Aspergillus flavus = test: Antifungal activity against Aspergillus flavus MTCC 3008 assessed as zone of inhibition at 25 to 150 ug/ml measured after 24 to 48 hrs by agar well diffusion method; type: functional
Candida albicans [2] = test: Antifungal activity against Candida albicans MTCC 227 assessed as zone of inhibition at 25 to 150 ug/ml measured after 24 to 48 hrs by agar well diffusion method; type: functional
Staphylococcus aureus [3] = test: Antibacterial activity against Staphylococcus aureus MTCC 96 assessed as zone of inhibition at 25 to 150 ug/ml measured after 24 hrs by agar well diffusion method; type: functional
Bacillus subtilis [4] = test: Antibacterial activity against Bacillus subtilis MTCC 441 assessed as zone of inhibition at 25 to 150 ug/ml measured after 24 hrs by agar well diffusion method; type: functional
Aspergillus niger = test: Antifungal activity against Aspergillus niger assessed as zone of inhibition at 25 to 150 ug/ml measured after 24 to 48 hrs by agar well diffusion method; type: functional
Escherichia coli [5] = test: Antibacterial activity against Escherichia coli MTCC 443 assessed as zone of inhibition at 25 to 150 ug/ml measured after 24 hrs by agar well diffusion method; type: functional
Penicillium chrysogenum = test: Antifungal activity against Penicillium chrysogenum MTCC 160 assessed as zone of inhibition at 25 to 150 ug/ml measured after 24 to 48 hrs by agar well diffusion method; type: functional
[6] = Displacement of [3H]RO15-1788 from benzodiazepine receptor in recombinant bovine brain membranes expressed in HEK293 cells after 1 hr; type: cell-based, Bos taurus, Membrane
Escherichia coli [7] = test: Antibacterial activity against Escherichia coli RCMB 000106 assessed as zone of inhibition at 30 ug/ml; type: functional; conditions: read-out: IZ
Aspergillus fumigatus = test: Antifungal activity against Aspergillus fumigatus RCMB 002006 assessed as zone of inhibition at 30 ug/ml; type: functional; conditions: read-out: IZ
Bacillus subtilis [8] = test: Antibacterial activity against Bacillus subtilis RCMB 000109 assessed as zone of inhibition at 30 ug/ml; type: functional; conditions: read-out: IZ
[9] = test system: Syncephalastrum racemosum; test: Antifungal activity against Syncephalastrum racemosum 005004 assessed as zone of inhibition at 30 ug/ml; type: functional; conditions: read-out: IZ
Geotrichum candidum = test: Antifungal activity against Geotrichum candidum 052008 assessed as zone of inhibition at 30 ug/ml; type: functional; conditions: read-out: IZ
Staphylococcus aureus [10] = test: Antibacterial activity against Staphylococcus aureus RCMB 000108 assessed as zone of inhibition at 30 ug/ml; type: functional; conditions: read-out: IZ
Pseudomonas aeruginosa = test: Antibacterial activity against Pseudomonas aeruginosa RCMB 000103 assessed as zone of inhibition at 30 ug/ml; type: functional; conditions: read-out: IZ
Candida albicans [11] = test: Antifungal activity against Candida albicans RCMB 0005003 assessed as zone of inhibition at 30 ug/ml; type: functional; conditions: read-out: IZ
MCF7 = test: Cytotoxicity against human MCF7 cells assessed as cell growth inhibition measured after 48 hrs by SRB assay; type: functional, cell-based; conditions: MCF7, 48 h
A549 = test: Cytotoxicity against human A549 cells assessed as cell growth inhibition measured after 48 hrs by SRB assay; type: functional, cell-based; conditions: A549, 48 h
HepG2 = test: Cytotoxicity against human HepG2 cells assessed as cell growth inhibition measured after 48 hrs by SRB assay; type: functional, cell-based; conditions: HepG2, 48 h
[12] = biological target: T2, Estrogen receptor (Homo sapiens) (UniProt P03372); test: Displacement of [3H]E2 from ERalpha (unknown origin) by radiometric assay relative to estradiol
T2 sequence (whole entry): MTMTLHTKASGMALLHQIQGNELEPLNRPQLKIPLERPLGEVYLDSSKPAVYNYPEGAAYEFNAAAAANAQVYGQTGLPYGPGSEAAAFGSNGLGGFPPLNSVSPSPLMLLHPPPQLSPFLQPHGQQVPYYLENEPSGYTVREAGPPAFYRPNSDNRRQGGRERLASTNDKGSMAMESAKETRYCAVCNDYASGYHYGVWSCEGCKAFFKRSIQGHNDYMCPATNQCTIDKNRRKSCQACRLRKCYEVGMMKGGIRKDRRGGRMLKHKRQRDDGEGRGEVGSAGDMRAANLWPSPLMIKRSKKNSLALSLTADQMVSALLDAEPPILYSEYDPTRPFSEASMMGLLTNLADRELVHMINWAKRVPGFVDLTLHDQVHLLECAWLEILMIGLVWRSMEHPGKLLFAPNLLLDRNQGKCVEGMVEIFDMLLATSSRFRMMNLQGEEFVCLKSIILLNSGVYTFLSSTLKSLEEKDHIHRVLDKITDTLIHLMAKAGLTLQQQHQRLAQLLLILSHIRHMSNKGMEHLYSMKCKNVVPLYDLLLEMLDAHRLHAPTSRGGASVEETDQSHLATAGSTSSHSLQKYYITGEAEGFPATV

[13] = biological target: Estrogen receptor beta (Homo sapiens) (UniProt Q92731); test: Displacement of [3H]E2 from ERbeta (unknown origin) by radiometric assay relative to estradiol
Sequence of Estrogen receptor beta (Homo sapiens) (Q92731 whole entry): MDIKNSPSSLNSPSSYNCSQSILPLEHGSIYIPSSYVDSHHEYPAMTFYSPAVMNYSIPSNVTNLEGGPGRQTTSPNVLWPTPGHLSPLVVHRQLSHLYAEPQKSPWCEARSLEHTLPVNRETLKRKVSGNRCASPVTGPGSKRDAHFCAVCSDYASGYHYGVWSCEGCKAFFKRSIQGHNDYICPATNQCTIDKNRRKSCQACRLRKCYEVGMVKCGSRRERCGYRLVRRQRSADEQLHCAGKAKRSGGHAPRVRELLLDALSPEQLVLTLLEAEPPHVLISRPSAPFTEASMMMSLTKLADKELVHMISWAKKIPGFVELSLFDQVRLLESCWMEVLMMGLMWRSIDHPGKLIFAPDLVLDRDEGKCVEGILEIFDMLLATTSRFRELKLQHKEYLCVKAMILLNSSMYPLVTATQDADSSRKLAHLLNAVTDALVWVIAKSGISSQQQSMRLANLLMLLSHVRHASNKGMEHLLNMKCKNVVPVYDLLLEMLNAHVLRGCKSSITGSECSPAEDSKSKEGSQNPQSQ

Sus scrofa = organism: Sus scrofa; test: Inhibition of PDE in pig blood assessed as suppression of ADP-induced platelet aggregation at 25 ug/ml by turbidimetric method relative to control
Ehrlich = test: Cytotoxicity against mouse EAC cells assessed as cell growth inhibition measured after 2 hrs by trypan blue exclusion assay; type: functional, cell-based
Bos taurus [14] = organism: Bos taurus; test: Ratio of IC50 for displacement of [3H]RO15-1788 from benzodiazepine receptor in bovine brain membranes in absence of GABA to IC50 for displacement of [3H]RO15-1788 from benzodiazepine receptor in bovine brain membranes in presence of GABA; type: cell membranes
[15] = Displacement of [3H]RO15-1788 from benzodiazepine receptor in bovine brain membranes; type: cell membranes, Bos taurus, Membrane
Bos taurus [16] = organism: Bos taurus; test: Displacement of [3H]RO15-1788 from benzodiazepine receptor in bovine brain membranes at 10 uM relative to control; type: cell membranes; conditions: Membrane
Bos taurus [17] = organism: Bos taurus; test: Potency index, ratio of theophylline IC50 to compound IC50 for inhibition of PDE in beef heart homogenates using [8-3H]cAMP as substrate measured 3 times between 3 to 12 mins; type: tissue-based
Oryctolagus cuniculus = organism: Oryctolagus cuniculus; test: Potency index, ratio of theophylline IC50 to compound IC50 for inhibition of PDE in rabbit lung homogenates using [8-3H]cAMP as substrate measured 3 times between 3 to 12 mins; type: tissue-based

SMILES: CCC(CC)Nc1cc(C)nc2c(-c3ccc(C)cc3Cl)c(C)nn12
- Ki [1]: 1.5 nM

SMILES: Cc1nn(-c2ccccc2)c(Cl)c1-c1cc(-c2cc(Cl)cc(I)c2O)nc2c(/N=N/c3ccc(Cl)cc3)c(N)nn12
- inhibition zone (IZ) (Salmonella typhi): 16 mm
- inhibition zone (IZ) (Aspergillus flavus): 21 mm
- inhibition zone (IZ) (Candida albicans [2]): 19 mm
- inhibition zone (IZ) (Staphylococcus aureus [3]): 18 mm
- inhibition zone (IZ) (Bacillus subtilis [4]): 15 mm
- inhibition zone (IZ) (Aspergillus niger): 26 mm
- inhibition zone (IZ) (Escherichia coli [5]): 17 mm
- inhibition zone (IZ) (Penicillium chrysogenum): 17 mm

SMILES: CN1C(=O)CN=C(c2ccccc2)c2cc(Cl)ccc21 [DIAZEPAM]
- Ki [6]: 10 nM

SMILES: Cc1ccc(/N=N/c2c(N)nn3c(-c4ccco4)cc(-c4ccco4)nc23)cc1
- zone of inhibition at 30 µg/mL (Escherichia coli [7]): 21.9 mm
- zone of inhibition at 30 µg/mL (Aspergillus fumigatus): 21.8 mm
- zone of inhibition at 30 µg/mL (Bacillus subtilis [8]): 23.3 mm
- zone of inhibition at 30 µg/mL [9]: 14.8 mm
- zone of inhibition at 30 µg/mL (Geotrichum candidum): 19.5 mm
- zone of inhibition at 30 µg/mL (Staphylococcus aureus [10]): 22.2 mm
- zone of inhibition at 30 µg/mL (Pseudomonas aeruginosa): 18.5 mm
- zone of inhibition at 30 µg/mL (Candida albicans [11]): 18.1 mm

SMILES: COc1ccc(Nc2nn3c(O)cc(C)nc3c2C(=O)Nc2ccccc2)cc1
- IC50 (MCF7): 4.6 µg/mL (≈ 11.8 µM)
- IC50 (A549): 5 µg/mL (≈ 12.8 µM)
- IC50 (HepG2): 4 µg/mL (≈ 10.3 µM)

SMILES: Nc1nn2c(-c3cccs3)cc(-c3cccs3)nc2c1/N=N/c1ccccc1
- zone of inhibition at 30 µg/mL (Escherichia coli [7]): 14.9 mm
- zone of inhibition at 30 µg/mL (Aspergillus fumigatus): 15.2 mm
- zone of inhibition at 30 µg/mL (Bacillus subtilis [8]): 17.9 mm
- zone of inhibition at 30 µg/mL [9]: 8.2 mm
- zone of inhibition at 30 µg/mL (Geotrichum candidum): 11.3 mm
- zone of inhibition at 30 µg/mL (Staphylococcus aureus [10]): 15.3 mm
- zone of inhibition at 30 µg/mL (Pseudomonas aeruginosa): 9.3 mm
- zone of inhibition at 30 µg/mL (Candida albicans [11]): 10 mm

SMILES: Oc1ccc(-c2nn3cccnc3c2-c2ccc(O)cc2)cc1
- relative binding affinity (RBA) [12]: 0.004
- relative binding affinity (RBA) [13]: 0.1

SMILES: CCC(CC)Nc1cc(C)nc2c(-c3ccc(Cl)cc3C)c(C)nn12
- Ki [1]: 1.7 nM

SMILES: CCOC(=O)c1cnc2c(Br)cnn2c1N
- inhibition (Sus scrofa): 67%

SMILES: Cc1cc(C)n2nc(Nc3ccccc3)c(C(=O)Nc3ccccc3)c2n1
- IC50 (Ehrlich): 10 µg/mL (≈ 28 µM)

SMILES: COc1ccc(-c2cnn3c(=O)c(-c4ccsc4)c[nH]c23)cc1
- Ratio IC50 (Bos taurus [14]): 1.25
- Ki [15]: 42.2 nM
- inhibition (Bos taurus [16]): 92%

SMILES: Cc1cc(NCCO)n2nccc2n1
- Ratio IC50 (Bos taurus [17]): 3.7
- Ratio IC50 (Oryctolagus cuniculus): 0.5

SMILES: Oc1ccc(-c2nn3cccnc3c2-c2ccccc2)cc1
- relative binding affinity (RBA) [12]: 0.01
- relative binding affinity (RBA) [13]: 0.05
